# Assay results: US11286263B2, “Macrocyclic fluorine substituted indole derivatives” (The Broad Institute, Inc., priority 2017, dated 2022)
# Several values for one entry are separate records, joined by “and”; a condition that tells them apart may be missing. Equal entries are not always repeated. Structures can show the parent of a compound that is named as a salt. Where two headings read alike, the source gives them in different places.
# Legend:
# BCL-XL = BCL-XL (Homo sapiens (Human), UniProt Q07817); assay: Protein-protein interaction assay BCL-XL/Bad BH3 peptide (BCL-XL assay), TR-FRET; type: binding; settings: median
# Experimental: Assay 2 Protein-Protein Interaction Assay: BCL-XL/Bad BH3 Peptide (BCL-XL Assay)
# The dose-dependent inhibition by the compounds described in this invention of the interaction between BCL-XL and the BH3 domain of Bad (both human) was determined using a steady state binding competition assay with time-resolved fluorescence energy transfer (TR-FRET) readout. For that purpose BCL-XL (amino acids 1-212, C-terminal fused to a hexahistidine (6× His) tag (SEQ ID 3) and a synthetic Bad BH3-derived peptide of sequence Biotin-PEG2-PEG2-NLWAAQRYGRELRR-Nle-SDEFVDSFKK-amide (SEQ ID 4) served as protein receptor and tracer ligand respectively. The recombinant BCL-XL protein (expressed in Ecol) was purchased from BPS Bioscience (San Diego, Calif., USA). The Bad BH3-derived peptide can be obtained from e.g. Biosyntan (Berlin, Germany).
# In the assay 11 different concentrations of each compound (0.1 nM, 0.33 nM, 1.1 nM, 3.8 nM, 13 nM, 44 nM, 0.15 μM, 0.51 μM, 1.7 μM, 5.9 μM and 20 μM) were typically measured as duplicates in the same microtiter plate. For that, 100-fold concentrated DMSO solutions were prepared by serial dilutions (1:3.4) of a 2 mM stock solution in a clear, 384-well microtiter plate (Greiner Bio-One, Frickenhausen, Germany). From there, 50 nl were transferred in a dark test plate (Greiner Bio-One, Frickenhausen, Germany). The assay was initiated by addition of 2 μl of a 2,5-fold concentrated His-BCL-XL solution (usually for a 1 nM end concentration in 5 μl reaction volume) in aqueous assay buffer [50 mM Tris/HCl pH 7, 100 mM sodium chloride (NaCl), 50 μM potassium fluoride (KF), 0.005% Tween-20, 2 mM DTT, 0.1% bovine gamma globulin (BGG)] to the compounds in the assay plate. This was followed by a 10-minute incubation step at 22° C. for pre-equilibration of the putative complex between His-BCL-XL and the compounds. After that, 3 μl of a 1.67-fold concentrated solution (in assay buffer) consisting of Bad BH3-derived peptide (1 nM end concentration) and TR-FRET detection reagents [1.67 nM anti-His-Eu cryptate and 1.67 nM streptavidin-XL665 (both from Cisbio Bioassays, Codolet, France)], were added.
# The mixture was incubated in the dark for one hour at 22° C. and then overnight at 4° C. The formation of BCL-XL/Bad complexes was determined by measuring the resonance energy transfer of the anti-His-Eu-cryptate antibody to the streptavidin-XL665 present in the reaction. For that purpose, the fluorescence emission at 620 nm and 665 nm after excitation at 330-350 nm was measured in a TR-FRET measuring instrument, for instance a Rubystar or a Pherastar (both from BMG Lab Technologies, Offenburg, Germany) or a Viewlux (Perkin-Elmer). The ratio of the emission at 665 nm and at 622 nm was used as indicator of the amount of BCL-XL/Bad complexes present.
# The resulting data (ratio) were normalized, taking 0% inhibition as the mean value of control measurements (usually 32 data points) where all reagents were included. In this case 50 nl DMSO were used instead of compounds. A 100% inhibition corresponded to the mean value of control measurements (usually 32 data points) where all reagents except BCL-XL were included. IC50 values were determined by regression analysis based on a 4 parameter equation (minimum, maximum, IC50, Hill; Y=Max+(Min−Max)/(1+(X/IC50)^Hill) using the Screener Software (Genedata).
# MV-4-11 = assay: Antiproliferation assay MV-4-11 (Assay 7); type: cell-based; settings: MV-4-11 cells, CellTiter-Glo, single determinations, read-out: IC50 Antiproli MV-4-11
# In short: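 Treated cells sat 72 h in a humidified 37 °C incubator, outer wells unused, before CellTiter-Glo reagent and a 10 min wait preceded luminescence reading; identical measurement of a parallel day 0 plate defined time zero.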
# Chain of BCL-XL (Q07817 1-212): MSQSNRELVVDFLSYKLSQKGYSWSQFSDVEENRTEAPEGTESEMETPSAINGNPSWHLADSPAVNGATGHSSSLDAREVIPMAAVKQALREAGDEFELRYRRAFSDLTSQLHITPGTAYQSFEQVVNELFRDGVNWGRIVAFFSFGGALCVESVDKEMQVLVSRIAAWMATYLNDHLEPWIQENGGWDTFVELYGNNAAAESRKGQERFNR
SMILES,IC50 (BCL-XL),also measured
"Cc1c2c(nn1C)COC/C=C\Cn1c(C(=O)O)c(CCCOc3cccc4ccccc34)c3ccc(F)c-2c31 (racemic) [Example 1, (rac)-(11Z)-4-fluoro-2,3-dimethyl-7-[3-(naphthalen-1-yloxy)propyl]-2,10,13,15-tetrahydro-pyrazolo[4′,3′:9,10][1,6]oxazacycloundecino[8,7,6-hi]indole-8-carboxylic acid]",> 20 µM,"IC50 (MV-4-11; Homo sapiens, MV4-11, 72 h): 11.3 µM; IC50 (MV-4-11; 72 h, listed as 01): 14.2 µM"
"CCc1c2c(nn1C)COC/C=C\Cn1c(C(=O)O)c(CCCOc3cccc4ccccc34)c3ccc(F)c-2c31 (racemic) [Example 5, (rac)-(11Z)-3-ethyl-4-fluoro-2-methyl-7-[3-(naphthalen-1-yloxy)propyl]-2,10,13,15-tetrahydro-pyrazolo[4′,3′:9,10][1,6]oxazacycloundecino[8,7,6-hi]indole-8-carboxylic acid]",> 20 µM,
"Cc1nn(C)c2c1-c1c(F)ccc3c(CCCOc4cccc5ccccc45)c(C(=O)O)n(c13)C/C=C\COC2 (racemic) [Example 9, (rac)-(Z)-13-fluoro-10,12-dimethyl-1-(3-(naphthalen-1-yloxy)propyl)-4,7,9,10-tetrahydro-pyrazolo[4′,3′:9,10][1]oxa[6]azacycloundecino[8,7,6-hi]indole-2-carboxylic acid]",> 20 µM,"IC50 (MV-4-11; Homo sapiens, MV4-11, 72 h): 7.5 µM; IC50 (MV-4-11; 72 h, listed as 09): 6.04 µM"
"Cc1nn(C)c2c1-c1c(F)ccc3c(CCCOc4cccc5ccccc45)c(C(=O)O)n(c13)CCCCOC2 (racemic) [Example 10, (rac)-13-fluoro-10,12-dimethyl-1-(3-(naphthalen-1-yloxy)propyl)-4,5,6,7,9,10-hexahydro-pyrazolo[4′,3′:9,10][1]oxa[6]azacycloundecino[8,7,6-hi]indole-2-carboxylic acid]",> 20 µM,"IC50 (MV-4-11; Homo sapiens, MV4-11, 72 h): 6.53 µM; IC50 (MV-4-11; 72 h): 4.39 µM"
"CCc1nn(C)c2c1-c1c(F)ccc3c(CCCOc4cccc5ccccc45)c(C(=O)O)n(c13)C/C=C\COC2 (racemic) [Example 11, (rac)-(Z)-12-ethyl-13-fluoro-10-methyl-1-(3-(naphthalen-1-yloxy)propyl)-4,7,9,10-tetrahydro-pyrazolo[4′,3′:9,10][1]oxa[6]azacycloundecino[8,7,6-hi]indole-2-carboxylic acid]",> 20 µM,"IC50 (MV-4-11; Homo sapiens, MV4-11, 72 h): 7.67 µM; IC50 (MV-4-11; 72 h): 12.8 µM"
"CCc1c2c(nn1C)CN(C)CCCCn1c(C(=O)O)c(CCCOc3cccc4c3CCC4)c3ccc(F)c-2c31 (racemic) [Example 51, (rac)-7-[3-(2,3-dihydro-1H-inden-4-yloxy)propyl]-3-ethyl-4-fluoro-2,14-dimethyl-10,11,12,13,14,15-hexahydro-2H-pyrazolo[3′,4′:8,9][1,6]diazacycloundecino[10,11,1-hi]indole-8-carboxylic acid]",> 20 µM,
"CCc1c2c(nn1C)CN(C)CCCCn1c(C(=O)O)c(CCCOc3cccc4c3CCCC4)c3ccc(F)c-2c31 (racemic) [Example 52, (rac)-3-ethyl-4-fluoro-2,14-dimethyl-7-[3-(5,6,7,8-tetrahydronaphthalen-1-yloxy)propyl]-10,11,12,13,14,15-hexahydro-2H-pyrazolo[3′,4′:8,9][1,6]diazacycloundecino[10,11,1-hi]indole-8-carboxylic acid]",> 20 µM,
"CCc1c2c(nn1C)CN(C)CCCCn1c(C(=O)O)c(CCCOc3cccc4ccccc34)c3ccc(F)c-2c31 (racemic) [Example 54, (rac)-3-ethyl-4-fluoro-2,14-dimethyl-7-[3-(1-naphthyloxy)propyl]-10,11,12,13,14,15-hexahydro-2H-pyrazolo[3′,4′:8,9][1,6]diazacycloundecino[10,11,1-hi]indole-8-carboxylic acid]",> 20 µM,
"CCc1c2c(nn1C)COCCCCn1c(C(=O)O)c(CCCOc3cccc4ccccc34)c3ccc(F)c-2c31 (single isomer, unassigned; enantiomer 1) [Example 7, 3-ethyl-4-fluoro-2-methyl-7-{3-[(naphthalen-1-yl)oxy]propyl}-2,10,11,12,13,15-hexahydro-pyrazolo[4′,3′:9,10][1,6]oxazacycloundecino[8,7,6-hi]indole-8-carboxylic acid-N-ethylethanamine salt (enantiomer 1)]",,"IC50 (MV-4-11; 72 h, listed as 07): 2.37 µM and 1.94 µM"
"Cc1c2c(nn1C)COCCCCn1c(C(=O)O)c(CCCOc3cccc4cc(F)ccc34)c3ccc(F)c-2c31 (single isomer, unassigned; enantiomer 1) [Example 13, 4-fluoro-7-{3-[(6-fluoronaphthalen-1-yl)oxy]propyl}-2,3-dimethyl-2,10,11,12,13,15-hexahydro-pyrazolo[4′,3′:9,10][1,6]oxazacycloundecino[8,7,6-hi]indole-8-carboxylic acid-N-ethylethanamine salt (enantiomer 1)]",,IC50 (MV-4-11; 72 h): 0.679 µM and 0.412 µM
"Cc1c2c(nn1C)CNCCCCn1c(C(=O)O)c(CCCOc3cccc4ccccc34)c3ccc(F)c-2c31 (single isomer, unassigned; enantiomer 1) [Example 48, 4-fluoro-2,3-dimethyl-7-{3-[(naphthalen-1-yl)oxy]propyl}-10,11,12,13,14,15-hexahydro-2H-pyrazolo[3′,4′:8,9][1,6]diazacycloundecino[10,11,1-hi]indole-8-carboxylic acid (enantiomer 1)]",> 20 µM,
"CCc1c2c(nn1C)COCCCCn1c(C(=O)O)c(CCCOc3cccc4cc(F)ccc34)c3ccc(F)c-2c31 (single isomer, unassigned; enantiomer 2) [Example 23, 3-ethyl-4-fluoro-7-{3-[(6-fluoronaphthalen-1-yl)oxy]propyl}-2-methyl-2,10,11,12,13,15-hexahydropyrazolo[4′,3′:9,10][1,6]oxazacycloundecino[8,7,6-hi]indole-8-carboxylic acid-N-ethylethanamine salt (enantiomer 2)]",,IC50 (MV-4-11; 72 h): 15.5 µM

# Second part, led by results:
IC50 (BCL-XL),SMILES,also measured
> 20 µM,"Cc1c2c(nn1C)COCCCCn1c(C(=O)O)c(CCCOc3ccc(F)c4ccccc34)c3ccc(F)c-2c31 (racemic) [Example 15, (rac)-13-fluoro-1-(3-((4-fluoronaphthalen-1-yl)oxy)propyl)-11,12-dimethyl-4,5,6,7,9,11-hexahydropyrazolo[4′,3′:9,10][1]oxa[6]azacycloundecino[8,7,6-hi]indole-2-carboxylic acid]",
> 20 µM,"CCc1c2c(nn1C)CN(C)CCCCn1c(C(=O)O)c(CCCOc3cccc4cc(F)ccc34)c3ccc(F)c-2c31 (racemic) [Example 53, (rac)-3-ethyl-4-fluoro-7-{3-[(6-fluoro-1-naphthyhoxy]propyl}-2,14-dimethyl-10,11,12,13,14,15-hexahydro-2H-pyrazolo[3′,4′:8,9][1,6]diazacycloundecino[10,11,1-hi]indole-8-carboxylic acid]",
> 20 µM,"CCc1c2c(nn1C)COCCCCn1c(C(=O)O)c(CCCOc3cccc4cc(F)ccc34)c3ccc(F)c-2c31 (single isomer, unassigned; enantiomer 1) [Example 24, 3-ethyl-4-fluoro-7-{3-[(6-fluoronaphthalen-1-yl)oxy]propyl}-2-methyl-2,10,11,12,13,15-hexahydropyrazolo[4′,3′:9,10][1,6]oxazacycloundecino[8,7,6-hi]indole-8-carboxylic acid (enantiomer 1)]",
